Experimental data reported in ChEMBL document CHEMBL3352251, “Structural factors affecting affinity of cytotoxic oxathiole-fused chalcones toward tubulin” (Eur J Med Chem, 2015).
pIC50: −log10 of the molar value. Active and inactive are the calls of the source. The calls are words filed in the database; no cut-off is given here.

What was measured:
[1] = test system: A549; experiment: cells; conditions: Homo sapiens, A549, 72 h
Description: Cytotoxicity against human A549 cells after 72 hrs by MTT assay

[2] = cells; conditions: Homo sapiens, HCT-116, 72 h
[3] = test system: HeLa; experiment: cells; conditions: Homo sapiens, 72 h
Description: Cytotoxicity against human HeLa cells after 72 hrs by MTT assay

[4] = test system: A549; experiment: Induction of growth arrest in human A549 cells assessed as MPM2 levels level at 1 uM after 6 to 48 hrs by immunofluorescence microscopy; format: functional, cell-based
[5] = target: Tubulin; experiment: Inhibition of tubulin (unknown origin) polymerization after 1 hr by multiplate reader method; format: protein-complex assay, Homo sapiens
[6] = target: Tubulin; experiment: Inhibition of colchicine binding to tubulin (unknown origin); format: protein-complex assay, Homo sapiens
[7] = target: Tubulin (Homo sapiens) (UniProt P68371+Q9H4B7+P0DPH7+P68366+Q13509+Q71U36+P04350+Q3ZCM7+P07437+P68363+Q9BQE3+Q6PEY2+Q13885+Q9BVA1+Q9BUF5); experiment: Inhibition of tubulin in human A549 cells assessed as disruption of microtubules at 1 uM incubated for 6 hrs by immunofluorescence staining; format: cell-based
[8] = test system: A549; experiment: Induction of cell cycle arrest in human A549 cells assessed as accumulation at G2/M phase accumulation at 1 uM after 48 hrs by propidium iodide staining based flow cytometry; format: functional
[9] = test system: A549; experiment: Increase in polyploid cells in human A549 cells at 1 uM after 24 to 72 hrs by propidium iodide staining based flow cytometry; format: functional, cell-based
[10] = test system: A549; experiment: Induction of apoptosis in human A549 cells at 1 uM after 24 to 72 hrs by propidium iodide staining based flow cytometry; format: functional, cell-based
[11] = test system: A549; experiment: Induction of growth arrest in human A549 cells assessed as mitotic chromosomes level at 1 uM after 6 to 48 hrs by fluorescence microscopy; format: functional, cell-based

| Compound | pIC50 [1] | pIC50 [2] | pIC50 [3] | further results |
| --- | --- | --- | --- | --- |
| CN(C)CCOc1ccc(/C=C/C(=O)c2c(O)ccc3c2SCO3)cc1 | 5.69 | 5.83 | 5.82 |  |
| COc1ccc(/C=C/C(=O)c2cc3c(cc2OC)OCS3)cc1OC | 5.92 | 6.13 | 6.25 |  |
| CC(=O)O[C@H]1C(=O)[C@@]2(C)[C@H]([C@H](OC(=O)c3ccccc3)[C@]3(O)C[C@H](OC(=O)[C@H](O)[C@@H](NC(=O)c4ccccc4)c4ccccc4)C(C)=C1C3(C)C)[C@]1(OC(C)=O)CO[C@@H]1C[C@@H]2O [PACLITAXEL] |  | 8.40 |  |  |
| COc1cc2c(cc1C(=O)/C=C/c1ccc(Cl)cc1)SCO2 | 5.52 | 5.68 | 5.75 |  |
| COc1ccc(/C=C/C(=O)c2cc3c(cc2OC)SCO3)cc1O | 7.66 |  |  |  |
| CCCOc1cc2c(cc1C(=O)/C=C/c1ccc(OC)c(O)c1)SCO2 | 7.92 | 7.92 | 8.30 |  |
| COc1cccc2c1C(=O)c1c(O)c3c(c(O)c1C2=O)C[C@@](O)(C(=O)CO)C[C@@H]3O[C@H]1C[C@H](N)[C@H](O)[C@H](C)O1 [DOXORUBICIN] | 6.91 | 7.16 | 6.81 |  |
| COc1cc2c(cc1C(=O)/C=C/c1cc(OC)c(OC)c(OC)c1)SCO2 | 5.46 | 5.65 | 5.39 |  |
| COc1cc2c(cc1C(=O)/C=C/c1ccc(O)cc1)SCO2 | 5.04 | 5.07 | 5.49 |  |
| COc1ccc(OC)c(/C=C/C(=O)c2cc3c(cc2OCCN2CCOCC2)OCS3)c1 | 5.57 | 5.84 | 5.62 |  |
| COc1cc2c(cc1C(=O)/C=C/c1cccc(Cl)c1)SCO2 | 5.69 | 5.93 | 5.84 |  |
| COc1cc(OC)c(/C=C/C(=O)c2cc3c(cc2OCC(=O)O)OCS3)c(OC)c1 | < 5.00 | < 5.00 | < 5.00 |  |
| O=C(/C=C/c1ccccc1Cl)c1c(O)ccc2c1SCO2 | 5.51 | 5.78 | 5.51 |  |
| COc1cc(/C=C/C(=O)c2cc3c(cc2OCC(=O)O)OCS3)cc(OC)c1OC | < 5.00 | < 5.00 | < 5.00 |  |
| COc1ccc(/C=C/C(=O)c2cc3c(cc2OCCN2CCOCC2)OCS3)cc1OC | 5.42 | 5.64 | 5.43 |  |
| COc1ccc(/C=C/C(=O)c2cc3c(cc2OCCN2CCOCC2)OCS3)cc1F | 5.37 | 5.91 | 6.15 |  |
| COc1ccc(/C=C/C(=O)c2c(O)ccc3c2SCO3)cc1 | 4.97 | 5.16 | 5.11 |  |
| COc1cc2c(cc1C(=O)/C=C/c1ccccc1)SCO2 | 5.39 | 5.65 | 5.72 |  |
| COc1cc2c(cc1C(=O)/C=C/c1cc(Br)c(OC)c(OC)c1)SCO2 | 5.46 | 5.68 | 5.39 |  |

| Compound | pIC50 [1] | pIC50 [2] | pIC50 [3] | further results |
| --- | --- | --- | --- | --- |
| CCCOc1cc2c(cc1C(=O)/C=C/c1ccc(OC)c(O)c1)OCS2 | 8.05 |  |  |  |
| O=C(/C=C/c1ccccc1)c1c(O)ccc2c1SCO2 | 5.44 | 5.66 | 5.56 |  |
| COc1ccc(/C=C\c2cc(OC)c(OC)c(OC)c2)cc1O [COMBRETASTATIN A4] |  | 8.40 | 8.52 |  |
| COc1cc2c(cc1C(=O)/C=C/c1ccc(CCN(C)C)cc1)SCO2 | 5.47 | 5.60 | 5.71 |  |
| COc1ccc(/C=C/C(=O)c2cc3c(cc2OC)OCS3)cc1 | 6.45 | 6.56 | 6.96 | Activity [4]: Active; pIC50 [5]: 5.24; pIC50 [6]: 6.31; inhibition [7]: Active; Activity [8]: Active; Activity [9]: Active; Activity [10]: Active; Activity [11]: Active |
| COc1ccc(/C=C/C(=O)c2c(O)ccc3c2SCO3)cc1F | 5.03 | 5.18 | 5.16 |  |
| COc1ccc(/C=C/C(=O)c2cc3c(cc2OC)OCS3)cc1F | 6.49 | 6.68 | 6.95 |  |
| COc1cc(/C=C/C(=O)c2cc3c(cc2OCCN2CCOCC2)OCS3)cc(OC)c1OC | 5.62 | 5.84 | 5.63 |  |
| O=C(/C=C/c1cccc(Cl)c1)c1c(O)ccc2c1SCO2 | 5.58 | 5.88 | 5.70 |  |
| COc1cc2c(cc1C(=O)/C=C/c1cccc(OC)c1OC)SCO2 | 5.30 | 5.50 | 5.40 |  |
| COc1cc(OC)c(/C=C/C(=O)c2cc3c(cc2OC)OCS3)c(OC)c1 | 6.51 | 6.45 | 6.82 |  |
| O=C(/C=C/c1ccc(Cl)cc1Cl)c1cc2c(cc1OCCN1CCOCC1)OCS2 | 5.76 | 6.01 | 5.81 |  |
| COc1cc2c(cc1C(=O)/C=C/c1ccc(OCC(=O)O)cc1)SCO2 | < 5.00 | < 5.00 | < 5.00 |  |
| O=C(/C=C/c1ccc(Br)cc1)c1c(O)ccc2c1SCO2 | 5.41 | 5.54 | 5.58 |  |
| COc1ccc(/C=C/C(=O)c2c(O)ccc3c2SCO3)cc1OC | 5.25 | 5.55 | 5.34 |  |
| COc1cc2c(cc1C(=O)/C=C/c1ccc(Br)cc1)SCO2 | 5.51 | 5.67 | 5.63 |  |
| COc1ccc(/C=C/C(=O)c2cc3c(cc2OC)SCO3)cc1 |  |  |  | pIC50 [5]: 5.38; pIC50 [6]: 6.97 |
| COc1ccc(/C=C/C(=O)c2cc3c(cc2OCC(=O)O)OCS3)cc1 | < 5.00 | < 5.00 | < 5.00 |  |
